Laboratory results: US20240018146A1, “COMPOSITIONS AND METHODS OF USING THE SAME FOR TREATMENT OF NEURODEGENERATIVE AND MITOCHONDRIAL DISEASE” (MITOKININ, INC., priority 2020, published 2024)
Read-outs that look alike come from different tables or passages of the source.

What was measured:
Type in all cases: cell-based
[1] = tested on: HeLa MKYP cells; assay: Cell death measured by DAPI staining, with 1 μM FCCP/oligomycin or no toxin (no FO); settings: for Max cell death at 25 μM compound, 1 uM FO (%) / Cell death at 25 μM (no FO) (%): 25 μM compound
Procedure, shortened: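 Cell death was read by DAPI staining after 6–6.5 h compound exposure in HeLa MKYP cells, either with 1 μM FCCP/oligomycin or without toxin. H2O2 served as the cell-death control.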

[2] = tested on: HeLa MKYP cells; assay: Human mitophagy assay (HeLa mKeima assay, FACS)
Procedure, shortened: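 Mitophagy, read by FACS as the share of cells showing the lysosomal mtKeima emission shift, followed 6 h of 1 uM FCCP/oligomycin stimulation. Before that, HeLa MKYP cells spent 16 h with compound over a concentration range.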

[3] = Mitotoxicity / Mitotox safety margin (therapeutic window)
[4] = read-out: Mitophagy induction EC50
[5] = Homo sapiens, HeLa, read-out: Mitophagy induction EC50

Fc1ccc2c(c1)CC[C@H](N1CCOCC1)[C@H]2Nc1ncnc2[nH]c(C3CC3)cc12 (single isomer, unassigned) [EP-0039746]
Max cell death at 25 μM compound, 1 uM FO (%) [1]: 15.3% | Cell death at 25 μM (no FO) (%) [1]: 3.3% | Highest safe dose (cytotoxicity; no FO; safe means DAPI+ <20%) [1]: 25.0 µM | Max % death with 1 μM FO [1]: 13.4% | EC50 ([2]; HeLa mKeima assay, read-out: Mitophagy EC50 (HeLa mKeima assay)): 250 nM | EC50 [2, 4]: 290 nM | Mitotox safety margin (Therapeutic window) [3]: +++ (+++ = 20 < x < 30) | Mito-Safety Index (highest safe dose/EC50) [3]: 9.48 | Highest safe dose (μM) (mitotox or cytotox) [3]: 2.8 µM

CO[C@H]1CCN([C@H]2COc3ccccc3[C@@H]2Nc2ncnc3[nH]c(C4CC4)cc23)C1 [EP-0041517]
Highest safe dose (cytotoxicity; no FO; safe means DAPI+ <20%) [1]: 25.0 µM | Max % death with 1 μM FO [1]: 4.8% | EC50 [2, 5]: 30 nM | Mito-Safety Index (highest safe dose/EC50) [3]: 34.73 | Highest safe dose (μM) (mitotox or cytotox) [3]: 1.1 µM

c1ccc2c(c1)OC[C@H](N1CCOCC1)[C@H]2Nc1ncnc2[nH]c(C3CC3)cc12 [EP-0040080]
Max cell death at 25 μM compound, 1 uM FO (%) [1]: 16% | Cell death at 25 μM (no FO) (%) [1]: 4.73% | Highest safe dose (cytotoxicity; no FO; safe means DAPI+ <20%) [1]: 25.0 µM | Max % death with 1 μM FO [1]: 13.9% | EC50 ([2]; Homo sapiens, HeLa, HeLa mKeima assay, read-out: Mitophagy EC50 (HeLa mKeima assay)): 590 nM | EC50 [2, 5]: 480 nM | Mitotox safety margin (Therapeutic window) [3]: ++ (++ = 10 < x < 20) | Mito-Safety Index (highest safe dose/EC50) [3]: 51.66 | Highest safe dose (μM) (mitotox or cytotox) [3]: 25.0 µM

Fc1ccc2c(c1)OC[C@H](N1C[C@H]3COC[C@@H]3C1)[C@H]2Nc1ncnc2[nH]c(C(F)(F)F)cc12 (single isomer, unassigned) [EP-0040748]
Highest safe dose (cytotoxicity; no FO; safe means DAPI+ <20%) [1]: 25.0 µM | Max % death with 1 μM FO [1]: 25.3% | EC50 [2, 4]: 210 nM | Mito-Safety Index (highest safe dose/EC50) [3]: 46.81 | Highest safe dose (μM) (mitotox or cytotox) [3]: 9.9 µM

CO[C@H]1CCN([C@H]2COc3ccccc3[C@@H]2Nc2ncnc3[nH]c(C(F)(F)F)cc23)C1 [EP-0041172]
Highest safe dose (cytotoxicity; no FO; safe means DAPI+ <20%) [1]: 25.0 µM | Max % death with 1 μM FO [1]: 8.4% | EC50 [2, 5]: 10 nM | Mito-Safety Index (highest safe dose/EC50) [3]: 121.36 | Highest safe dose (μM) (mitotox or cytotox) [3]: 1.1 µM

FC(F)(F)c1cc2c(N[C@@H]3c4ccccc4OC[C@@H]3C3CCCOC3)ncnc2[nH]1 (single isomer, unassigned) [EP-0041005]
Highest safe dose (cytotoxicity; no FO; safe means DAPI+ <20%) [1]: 25.0 µM | Max % death with 1 μM FO [1]: 24.8% | EC50 [2, 5]: 1450 nM | Mito-Safety Index (highest safe dose/EC50) [3]: 17.30 | Highest safe dose (μM) (mitotox or cytotox) [3]: 25.0 µM

C[C@@H]1CN([C@H]2COc3cc(F)ccc3[C@@H]2Nc2ncnc3[nH]c(C4CC4)cc23)C[C@H](C)O1 [EP-0040948]
Highest safe dose (cytotoxicity; no FO; safe means DAPI+ <20%) [1]: 25.0 µM | Max % death with 1 μM FO [1]: 5.6% | EC50 [2, 5]: > 25000 nM | Highest safe dose (μM) (mitotox or cytotox) [3]: 25.0 µM

c1ccc2c(c1)CC[C@@H](N1CCOCC1)[C@@H]2Nc1ncnc2[nH]c(C3CC3)cc12 (single isomer, unassigned) [EP-0040109]
Highest safe dose (cytotoxicity; no FO; safe means DAPI+ <20%) [1]: 25.0 µM | Max % death with 1 μM FO [1]: 7.9% | EC50 [2, 5]: 24800 nM | Mito-Safety Index (highest safe dose/EC50) [3]: 1.01 | Highest safe dose (μM) (mitotox or cytotox) [3]: 25.0 µM

C[C@H]1CN([C@@H]2COc3cc(F)ccc3[C@H]2Nc2ncnc3[nH]c(C4CC4)cc23)CCO1 [EP-0041125]
Highest safe dose (cytotoxicity; no FO; safe means DAPI+ <20%) [1]: 25.0 µM | Max % death with 1 μM FO [1]: 9.6% | EC50 [2, 5]: 160 nM | Mito-Safety Index (highest safe dose/EC50) [3]: 45.69 | Highest safe dose (μM) (mitotox or cytotox) [3]: 7.4 µM

Fc1ccc2c(c1)OC[C@H](N1C[C@H]3COC[C@H]3C1)[C@H]2Nc1ncnc2[nH]c(C3CC3)cc12 (single isomer, unassigned) [EP-0040328]
Highest safe dose (cytotoxicity; no FO; safe means DAPI+ <20%) [1]: 25.0 µM | Max % death with 1 μM FO [1]: 16.0% | EC50 [2, 4]: 190 nM | Mito-Safety Index (highest safe dose/EC50) [3]: 84.78 | Highest safe dose (μM) (mitotox or cytotox) [3]: 16.0 µM

COC[C@H]1CCN([C@H]2COc3ccccc3[C@@H]2Nc2ncnc3[nH]c(C4CC4)cc23)C1 [EP-0041546]
Highest safe dose (cytotoxicity; no FO; safe means DAPI+ <20%) [1]: 25.0 µM | Max % death with 1 μM FO [1]: 6.6% | EC50 [2, 4]: 170 nM | Mito-Safety Index (highest safe dose/EC50) [3]: 21.52 | Highest safe dose (μM) (mitotox or cytotox) [3]: 3.6 µM

FC(F)(F)c1cc2c(NC3c4ccccc4OCC3N3C[C@H]4COC[C@@H]4C3)ncnc2[nH]1 (stereo partly shown) [EP-0040678]
Highest safe dose (cytotoxicity; no FO; safe means DAPI+ <20%) [1]: 25.0 µM | Max % death with 1 μM FO [1]: 9.2% | EC50 [2, 5]: 860 nM | Mito-Safety Index (highest safe dose/EC50) [3]: 28.90 | Highest safe dose (μM) (mitotox or cytotox) [3]: 25.0 µM

FC(F)(F)c1cc2c(N[C@H]3c4ccccc4OC[C@@H]3C3CCOCC3)ncnc2[nH]1 [EP-0040583]
Highest safe dose (cytotoxicity; no FO; safe means DAPI+ <20%) [1]: 25.0 µM | Max % death with 1 μM FO [1]: 17.8% | EC50 [2, 5]: 240 nM | Mito-Safety Index (highest safe dose/EC50) [3]: 104.01 | Highest safe dose (μM) (mitotox or cytotox) [3]: 25.0 µM

Fc1ccc2c(c1)CC[C@H](N1C[C@H]3COC[C@@H]3C1)[C@H]2Nc1ncnc2[nH]c(C3CC3)cc12 [EP-0040395]
Highest safe dose (cytotoxicity; no FO; safe means DAPI+ <20%) [1]: 25.0 µM | Max % death with 1 μM FO [1]: 8.1% | EC50 [2, 5]: 210 nM | Mito-Safety Index (highest safe dose/EC50) [3]: 56.09 | Highest safe dose (μM) (mitotox or cytotox) [3]: 11.7 µM

Fc1ccc2c(c1)CC[C@H](N1C[C@@H]3COC[C@H]3C1)[C@H]2Nc1ncnc2[nH]c(C3CC3)cc12 [EP-0040669]
Highest safe dose (cytotoxicity; no FO; safe means DAPI+ <20%) [1]: 25.0 µM | Max % death with 1 μM FO [1]: 29.9% | EC50 [2, 5]: 350 nM | Mito-Safety Index (highest safe dose/EC50) [3]: 71.36 | Highest safe dose (μM) (mitotox or cytotox) [3]: 25.0 µM

Fc1ccc2c(c1)CC[C@H](N1C[C@H]3COC[C@H]3C1)[C@H]2Nc1ncnc2[nH]c(C3CC3)cc12 [EP-0040601]
Highest safe dose (cytotoxicity; no FO; safe means DAPI+ <20%) [1]: 25.0 µM | Max % death with 1 μM FO [1]: 45.3% | EC50 [2, 5]: 190 nM | Mito-Safety Index (highest safe dose/EC50) [3]: 55.12 | Highest safe dose (μM) (mitotox or cytotox) [3]: 10.3 µM

COC1CN([C@H]2COc3ccccc3[C@@H]2Nc2ncnc3[nH]c(C(F)(F)F)cc23)C1 [EP-0040849]
Highest safe dose (cytotoxicity; no FO; safe means DAPI+ <20%) [1]: 25.0 µM | Max % death with 1 μM FO [1]: 5.2% | EC50 [2, 4]: 9590 nM | Mito-Safety Index (highest safe dose/EC50) [3]: 2.61 | Highest safe dose (μM) (mitotox or cytotox) [3]: 25.0 µM

C[C@@H]1CN([C@H]2COc3ccccc3[C@@H]2Nc2ncnc3[nH]c(C4CC4)cc23)C[C@H](C)O1 (single isomer, unassigned) [EP-0040750]
Highest safe dose (cytotoxicity; no FO; safe means DAPI+ <20%) [1]: 25.0 µM | Max % death with 1 μM FO [1]: 27.7% | EC50 [2, 5]: 50 nM | Mito-Safety Index (highest safe dose/EC50) [3]: 43.07 | Highest safe dose (μM) (mitotox or cytotox) [3]: 2.3 µM

C[C@H]1CN([C@H]2COc3ccccc3[C@@H]2Nc2ncnc3[nH]c(C4CC4)cc23)CCO1 [EP-0040999]
Highest safe dose (cytotoxicity; no FO; safe means DAPI+ <20%) [1]: 25.0 µM | Max % death with 1 μM FO [1]: 12.1% | EC50 [2, 5]: 140 nM | Mito-Safety Index (highest safe dose/EC50) [3]: 105.78 | Highest safe dose (μM) (mitotox or cytotox) [3]: 15.1 µM

C[C@H]1CN([C@@H]2COc3ccccc3[C@H]2Nc2ncnc3[nH]c(C(F)(F)F)cc23)CCO1 [EP-0040980]
Highest safe dose (cytotoxicity; no FO; safe means DAPI+ <20%) [1]: 19.4 µM | Max % death with 1 μM FO [1]: 14.7% | EC50 [2, 5]: 380 nM | Mito-Safety Index (highest safe dose/EC50) [3]: 50.83 | Highest safe dose (μM) (mitotox or cytotox) [3]: 19.4 µM

COC1CN([C@H]2COc3ccccc3[C@@H]2Nc2ncnc3[nH]c(C4CC4)cc23)C1 [EP-0040702]
Highest safe dose (cytotoxicity; no FO; safe means DAPI+ <20%) [1]: 25.0 µM | Max % death with 1 μM FO [1]: 7.7% | EC50 [2, 4]: 320 nM | Mito-Safety Index (highest safe dose/EC50) [3]: 77.26 | Highest safe dose (μM) (mitotox or cytotox) [3]: 25.0 µM
